No end group written: not given here.
Test system: LDL
Assay: Staining of peptide-bonded resin with biotinylated LDL in plasma (ABC method)
Format: binding
Design: key: the peptide-bonded resins which were stained are indicated with "+ (plus)"; the peptide-bonded resins which were not stained are indicated with "- (minus)"
Experimental: With respect to the adsorbent comprising the water-insoluble carrier having bonded thereto the peptide, as a method for evaluating the binding ability (affinity) of the adsorbent for an LDL, there can be mentioned a method in which, after causing an LDL to be adsorbed on the adsorbent, the adsorbent having the LDL adsorbed thereon is subjected to staining (avidin-biotin complex method, that is, ABC method). Specifically, a biotinylated LDL is added to plasma, and the adsorbent is immersed in the plasma for a predetermined period of time. Then, the adsorbent is taken out of the plasma, and washed. Subsequently, the adsorbent is immersed in a horseradish peroxidase-labeled streptoavidin solution, and a solution of 3,3'-diamino benzidine, which is a substrate for the above-mentioned enzyme (horseradish peroxidase), is added thereto, thereby staining the adsorbent. The binding ability of the adsorbent for LDL is evaluated from the degree of the staining. With respect to methods for evaluating a binding ability for LDL, reference can be made to, for example, the following literature: S. M. Hsu, L. Raine, H. Fanger, J. Histchem. Cytochem., 29, 577 (1981); and H. Towbin, T. Staehelin, J. Gordon, Proc. Natl. Acad. Sci. U.S.A., 76, 4350 (1979).
The ability of each of the peptides to bind thereto an LDL was evaluated as follows. To a blood sample obtained from a healthy person was added a 3.8% aqueous solution of sodium citrate to thereby obtain a mixture. The obtained mixture was centrifuged to separate the blood sample into a blood cells component and a plasma component.
On the other hand, each of the above-mentioned polystyrene resins having bonded thereto the above-synthesized peptides was individually taken out from the synthesis reaction system and packed in a column having a filter (manufactured and sold by Bio-Rad laboratories, U.S.A.). Subsequently, the plasma-LDL mixture prepared above was added to the column, and the column was allowed to stand at room temperature for 1 hour. Then, the column was washed with a physiological saline containing 0.1% Tween 20 and sodium phosphate. After the washing, 1 ml of a horseradish peroxidase-labeled streptoavidine (0.2 ug/ml) solution containing 10% Block Ace (manufacturedand sold by Dainippon Pharmaceutical Co., Ltd., Japan) was added to the column, and the column was allowed to stand at room temperature for 30 minutes. Then, 1 ml of a 3,3'-diaminobenzidine tetrahydrochloride ([…]) solution containing 0.005% hydrogen peroxide was added to the column (by the addition of this solution, when a peptide-bonded resin contained in the column has the LDL bonded thereto, the resin is stained to assume brown color).
Results are shown in Table 1, wherein the peptide-bonded resins which were stained are indicated with "+ (plus)" and the peptide-bonded resins which were not stained are indicated with "- (minus)".
The ability of each of the peptides to bind thereto an LDL was evaluated in substantially the same manner as in Example 1.

[1] = Table 2, peptide-bonded TG resin, same manner as Example 1
[2] = Table 1, peptide-bonded TG resin, room temperature 1 hour, peroxidase-streptoavidin/3,3'-diaminobenzidine

Substance | Stain [1] | Stain [2]
Example 2 Sample 4: pentapeptide N1-N5 = R F W L F, bonded to TG polystyrene resin (RFWLF; not fully specified; printed as Arg Phe Trp Leu Phe) | + | 
Example 2 Sample 7: pentapeptide N1-N5 = W R Y D R, bonded to TG polystyrene resin (WRYDR; not fully specified; printed as Trp Arg Tyr Asp Arg) | + | 
Example 1 Sample 4: pentapeptide N1-N5 = I F Y K W, bonded to TG polystyrene resin (IFYKW; not fully specified; printed as Ile Phe Tyr Lys Trp) |  | +
Example 1 Sample 2: pentapeptide N1-N5 = F K I W W, bonded to TG polystyrene resin (FKIWW; not fully specified; printed as Phe Lys Ile Trp Trp) |  | +
Comparative Example 2 Sample 14: comparative pentapeptide N1-N5 = V E E M E, bonded to TG polystyrene resin (VEEME; not fully specified) [reference compound] | - | 
Example 2 Sample 8: pentapeptide N1-N5 = L K W F Q, bonded to TG polystyrene resin (LKWFQ; not fully specified; printed as Leu Lys Trp Phe Gln) | + | 
Example 2 Sample 2: pentapeptide N1-N5 = F A Y R R, bonded to TG polystyrene resin (FAYRR; not fully specified; printed as Phe Ala Tyr Arg Arg) | + | 
Comparative Example 2 Sample 2: comparative pentapeptide N1-N5 = H Y Y L Q, bonded to TG polystyrene resin (HYYLQ; not fully specified; printed as His Tyr Tyr Leu Gln) [reference compound] | - | 
Example 2 Sample 9: pentapeptide N1-N5 = Y Y R W F, bonded to TG polystyrene resin (YYRWF; not fully specified; printed as Tyr Tyr Arg Trp Phe) | + | 
Example 2 Sample 3: pentapeptide N1-N5 = R W I L Q, bonded to TG polystyrene resin (RWILQ; not fully specified; printed as Arg Trp Ile Leu Gln) | + | 
Comparative Example 2 Sample 1: comparative pentapeptide N1-N5 = T H R Q R, bonded to TG polystyrene resin (THRQR; not fully specified; printed as Thr His Arg Gln Arg) [reference compound] | - | 
Comparative Example 1 Sample 5: comparative pentapeptide N1-N5 = M L T V R, bonded to TG polystyrene resin (MLTVR; not fully specified; printed as Met Leu Thr Val Arg) [reference compound] |  | -
Example 2 Sample 12: pentapeptide N1-N5 = L N F R W, bonded to TG polystyrene resin (LNFRW; not fully specified; printed as Leu Asn Phe Arg Trp) | + | 
Example 2 Sample 6: pentapeptide N1-N5 = K H I Y W, bonded to TG polystyrene resin (KHIYW; not fully specified; printed as Lys His Ile Tyr Trp) | + | 
Comparative Example 1 Sample 3: comparative pentapeptide N1-N5 = L H R H L, bonded to TG polystyrene resin (LHRHL; not fully specified; printed as Leu His Arg His Leu) [reference compound] |  | -
Comparative Example 1 Sample 2: comparative pentapeptide N1-N5 = P K S I N, bonded to TG polystyrene resin (PKSIN; not fully specified; printed as Pro Lys Ser Ile Asn) [reference compound] |  | -
Comparative Example 2 Sample 8: comparative pentapeptide N1-N5 = H A S N P, bonded to TG polystyrene resin (HASNP; not fully specified; printed as His Ala Ser Asn Pro) [reference compound] | - | 
Example 1 Sample 3: pentapeptide N1-N5 = W Q R H F, bonded to TG polystyrene resin (WQRHF; not fully specified; printed as Trp Gln Arg His Phe) |  | +
Comparative Example 2 Sample 6: comparative pentapeptide N1-N5 = Y I Q V W, bonded to TG polystyrene resin (YIQVW; not fully specified; printed as Tyr Ile Gln Val Trp) [reference compound] | - | 
Example 2 Sample 10: pentapeptide N1-N5 = L W K S F, bonded to TG polystyrene resin (LWKSF; not fully specified; printed as Leu Trp Lys Ser Phe) | + | 
Comparative Example 1 Sample 1: comparative pentapeptide N1-N5 = R A H I N, bonded to TG polystyrene resin (RAHIN; not fully specified; printed as Arg Ala His Ile Asn) [reference compound] |  | -
Comparative Example 2 Sample 13: comparative pentapeptide N1-N5 = F N F E S, bonded to TG polystyrene resin (FNFES; not fully specified; printed as Phe Asn Phe Glu Ser) [reference compound] | - | 
Example 2 Sample 14: pentapeptide N1-N5 = W L M W R, bonded to TG polystyrene resin (WLMWR; not fully specified; printed as Trp Leu Met Trp Arg) | + | 
Comparative Example 2 Sample 10: comparative pentapeptide N1-N5 = F I I M E, bonded to TG polystyrene resin (FIIME; not fully specified; printed as Phe Ile Ile Met Glu) [reference compound] | - | 
Comparative Example 2 Sample 5: comparative pentapeptide N1-N5 = H W V V H, bonded to TG polystyrene resin (HWVVH; not fully specified; printed as His Trp Val Val His) [reference compound] | - | 
Comparative Example 2 Sample 4: comparative pentapeptide N1-N5 = P N A F A, bonded to TG polystyrene resin (PNAFA; not fully specified; printed as Pro Asn Ala Phe Ala) [reference compound] | - | 
Example 2 Sample 13: pentapeptide N1-N5 = F L M R F, bonded to TG polystyrene resin (FLMRF; not fully specified; printed as Phe Leu Met Arg Phe) | + | 
